{"source": "patent US20100267626A1", "about": "“METHODS AND COMPOSITIONS FOR MEASURING WNT ACTIVATION AND FOR TREATING WNT-RELATED CANCERS” (Novartis AG, priority 2007, published 2010)", "key": {"[1]": {"test_system": "Wnt3A stimulated STF activity", "assay": "Wnt-responsive Super-Topflash (STF) luciferase reporter assay in HEK293 cells", "type": "cell-based"}, "DLD-1 cells": {"test_system": "DLD-1 cells", "assay": "Colony formation assay, DLD-1 cells", "type": "cell-based", "settings": "low serum growth conditions", "protocol": "FIG. 6A. […] DLD1 and RKO cells were seeded at […] in a 6-well plate in medium containing 0.5% serum and indicated compounds, and replenished with fresh medium every two days. Colonies were visualized by crystal violet staining.\nFIG. 6B. […] DLD1 cells were transfected with siRNAs against Axin1 and Axin2, and seeded at 1000 cells/well in a 6-well plate. The compound treatment was carried out as described in 6A.\n(§1) The colony formation assay was performed as follows: DLD1 and RKO cells were seeded in low serum growth medium (0.5% FBS) at 500 and 1000 cells/well, respectively, into […]. Sixteen hours after plating, compounds were added at the indicated concentrations. Medium was replenished every two days until colony formation was observed. Colonies were stained by a solution of 2 mg/ml crystal violet in buffered formalin and imaged on a Molecular Imager ChemiDoc XRS System (BioRad)."}, "TNKS": {"test_system": "TNKS", "settings": "doses 1 nM to 100 μM"}, "[2]": {"target": "C-terminal PARP domain of TNKS2 (GST-TNKS2 PARP) (Homo sapiens, UniProt Q9H2K2)", "sequence (Q9H2K2 934-1166)": "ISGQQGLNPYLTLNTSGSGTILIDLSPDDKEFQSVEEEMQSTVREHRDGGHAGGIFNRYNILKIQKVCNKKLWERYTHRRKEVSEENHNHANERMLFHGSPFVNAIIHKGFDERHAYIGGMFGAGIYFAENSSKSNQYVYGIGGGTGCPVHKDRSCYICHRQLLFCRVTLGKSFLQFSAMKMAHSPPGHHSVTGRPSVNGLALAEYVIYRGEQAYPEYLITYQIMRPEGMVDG", "assay": "In vitro auto-PARsylation assay of TNKS2"}, "PARP1/2": {"test_system": "PARP1/2", "assay": "Dose response compound competition experiment (immunoblot)", "settings": "doses 1 nM to 100 μM"}, "Axin1 and Axin2 [3]": {"test_system": "Axin1 and Axin2", "assay": "Axin ubiquitination in SW480 cells (immunoprecipitation/immunoblot)", "type": "cell-based, human", "excerpt": "The position that Axin1 migrates is labeled with an arrow.\nFIG. 5E. […] (IP: immunoprecipitation, TCL: total cell lysates)"}, "CRE luciferase reporter": {"test_system": "CRE luciferase reporter", "assay": "CRE luciferase reporter in HEK293 cells (Forskolin activated)", "type": "cell-based"}, "[4]": {"test_system": "NF-κB luciferase reporter", "assay": "NF-κB luciferase reporter in HEK293 cells (TNFα activated)", "type": "cell-based"}, "TGFβ luciferase reporter": {"test_system": "TGFβ luciferase reporter", "assay": "TGFβ (CAGA12) luciferase reporter in HEK293 cells", "type": "cell-based"}, "β-catenin [5]": {"test_system": "β-catenin", "assay": "Immunoblot of cytosolic β-catenin in Wnt3A stimulated HEK293 cells", "type": "cell-based"}, "β-catenin [6]": {"test_system": "β-catenin", "assay": "Immunoblot of β-catenin and phospho-β-catenin in SW480 cells", "type": "cell-based, human"}, "Axin1 and Axin2 [7]": {"test_system": "Axin1 and Axin2", "assay": "Immunoblot of Axin protein levels after compound treatment", "type": "cell-based, human", "settings": "after XAV939 treatment"}, "PARP2": {"target": "PARP2 (Homo sapiens, UniProt Q9UGN5)", "sequence (Q9UGN5 whole entry)": "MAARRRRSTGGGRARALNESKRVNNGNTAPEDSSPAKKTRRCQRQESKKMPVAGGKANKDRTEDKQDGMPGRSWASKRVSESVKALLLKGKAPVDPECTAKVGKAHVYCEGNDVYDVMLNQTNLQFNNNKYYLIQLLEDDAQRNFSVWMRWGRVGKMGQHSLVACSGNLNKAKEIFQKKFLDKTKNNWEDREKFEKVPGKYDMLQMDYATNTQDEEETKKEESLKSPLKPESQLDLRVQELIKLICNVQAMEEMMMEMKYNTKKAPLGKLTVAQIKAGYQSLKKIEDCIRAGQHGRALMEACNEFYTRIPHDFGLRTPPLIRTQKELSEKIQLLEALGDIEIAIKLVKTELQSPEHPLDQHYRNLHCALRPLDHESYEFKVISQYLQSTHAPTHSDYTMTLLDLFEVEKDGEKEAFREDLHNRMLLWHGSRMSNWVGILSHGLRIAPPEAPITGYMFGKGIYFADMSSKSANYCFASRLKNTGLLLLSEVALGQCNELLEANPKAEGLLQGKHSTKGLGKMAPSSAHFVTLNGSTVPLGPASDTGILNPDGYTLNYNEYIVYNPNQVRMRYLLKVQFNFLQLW", "assay": "iTRAQ quantitative chemical proteomics competition, HEK293 cell lysates", "type": "binding", "settings": "20 μM soluble compound, relative to DMSO"}, "GFP-Axin1": {"test_system": "GFP-Axin1", "assay": "GFP-Axin1 fusion construct protein levels in SW480 cell lines", "type": "cell-based, mouse", "excerpt": "FIG. 4E. The TNKS binding domain is required for XAV939-induced Axin1 protein accumulation. […] Total cell lysates were harvested and analyzed by immunoblotting.\n(§2) The SuperTopFlash (STF) methods described in at least Example 1 employed plasmids manufactured as follows: SuperTopflash reporter was generated by inserting twelve TCF binding sites into pTA-Luc (Clontech). Mouse Axin1 and its mutants were fused with either GFP or FLAG epitope at the amino termini and cloned into a retroviral vector under the control of the metallothionein promoter. Human TNKS1/2 and their mutants were tagged with FLAG epitope fused at the amino termini and cloned into a mammalian expression vector under the control of the cytomegalovirus (CMV) promoter. Drosophila Axin fused with three HA epitopes at the carboxyl terminus was cloned in a Drosophila expression vector under the control of the metallothionein promoter. A sequence encoding the amino terminal fragment of mouse Axin1 (a.a. 1-87) was cloned in a Tet-regulated expression vector pcDNA4-TO (Invitrogen). Several proteins were cloned using Gateway technology (Invitrogen) into the expression vector pDEST15 (Invitrogen, Carlsbad, Calif.): TNKS1-P(1088-1327), TNKS2-P(934-1166), TNKS2-SP (872-1166), PARP1-P (662-1014) and PARP16-P (93-273).\nThe functional consequences of disrupting the physical interaction between Axin and TNKS were assessed. […]. […] […]."}, "GFP-Axin": {"test_system": "GFP-Axin", "assay": "PARsylation of exogenously expressed GFP-Axin in cells", "type": "cell-based, mouse", "settings": "anti-PAR antibody", "protocol": "FIG. 5D. In vivo PARsylation of Axin1. SW480 cells stably expressing GFP-Axin1 under control of the metallothionein promoter were incubated with Cu^2+ overnight to induce expression of GFP-Axin1. […] Lysates were harvested with RIPA buffer containing PARG inhibitor ADP-HPD (5 μM) and PARP1 inhibitor PJ34 (80 μM), immunoprecipitated with GFP antibody and analyzed by immunoblotting.\nas §2, with “Several proteins were cloned using Gateway technology (Invitrogen) into the expression vector pDEST15 (Invitrogen, Carlsbad, Calif.): TNKS1-P(1088-1327), TNKS2-P(934-1166), TNKS2-SP (872-1166), PARP1-P (662-1014) and PARP16-P (93-273).” left out"}, "RKO cells": {"test_system": "RKO cells", "assay": "Colony formation assay, RKO cells", "type": "cell-based", "settings": "low serum growth conditions, β-catenin independent cells", "protocol": "[…]. DLD1 and RKO cells were seeded at 500 cells/well in a 6-well plate in medium containing 0.5% serum and indicated compounds, and replenished with fresh medium every two days. Colonies were visualized by crystal violet staining.\nas §1"}, "[8]": {"test_system": "cell lines used in this study", "assay": "Mitotic arrest phenotype in cell lines", "type": "cell-based", "settings": "low or high serum conditions", "excerpt": "TNKS1/TNKS2 have been described to regulate mitotic progression, telomere maintenance, and GLUT4 transport. (Canudas, S., et al. (2007) Embo J 26, 4867-78 (2007); Seimiya, H., et al. (2002) J Biol Chem 277, 14116-26) In particular, TNKS1 was proposed to be required for the resolution of sister telomere association or assembly of bipolar spindles, and TNKS1 knockdown was reported to cause strong mitotic arrest."}, "Axin-GSK3β complex": {"test_system": "Axin-GSK3β complex", "assay": "Axin-GSK3β complex formation"}, "[9]": {"test_system": "Axin1 and Axin2 transcript", "assay": "Axin transcript levels (quantitative RT-PCR)", "settings": "after compound treatment"}, "Axin2": {"test_system": "Axin2", "assay": "PARsylation of endogenous Axin2 in compound wash-off experiment", "settings": "MG132 plus XAV939"}, "[10]": {"settings": "wash-off experiment, MG132 alone"}}, "note": "Peptide text beside a SMILES is read from it. * marks the point of attachment. Cbz = O=C(OCc1ccccc1)*"}
{"smiles": "CC(=O)N1CCc2nc(-c3ccc(C(F)(F)F)cc3)[nH]c(=O)c2C1", "note": "[LDW643]", "values": [{"measurement": "Wnt3A stimulated STF activity", "setting": "[1]", "result": "no activity"}, {"measurement": "colony formation of DLD-1 cells", "setting": "DLD-1 cells", "result": "did not affect"}, {"measurement": "activity in compound competition, TNKS binding", "setting": "TNKS", "result": "no activity"}, {"measurement": "auto-PARsylation of GST-TNKS2 PARP", "setting": "[2]", "result": "not affected"}, {"measurement": "activity in compound competition, PARP1/2 binding", "setting": "PARP1/2", "result": "no activity"}]}
{"smiles": "CC(C)C[C@@H](C=O)NC(=O)[C@H](CC(C)C)NC(=O)[C@H](CC(C)C)NC(=O)OCc1ccccc1", "note": "[MG132] (Cbz-Leu-Leu-Leu-aldehyde)", "values": [{"measurement": "poly-ubiquitination of Axin1", "setting": "Axin1 and Axin2 [3]; MG132 alone", "result": "increased significantly"}, {"measurement": "Axin2 degradation after XAV939 wash-off", "setting": "Axin1 and Axin2 [3]; [10]", "result": "blocked"}, {"measurement": "Axin2 poly-ubiquitination after XAV939 wash-off", "setting": "Axin1 and Axin2 [3]; [10]", "result": "strongly increased"}]}
{"smiles": "Oc1nc(-c2ccc(C(F)(F)F)cc2)nc2c1CSCC2", "note": "[XAV939]", "values": [{"measurement": "effect on CRE luciferase reporter", "setting": "CRE luciferase reporter", "result": "did not affect"}, {"measurement": "effect on NF-κB luciferase reporter", "setting": "[4]", "result": "did not affect"}, {"measurement": "effect on TGFβ luciferase reporter", "setting": "TGFβ luciferase reporter", "result": "did not affect"}, {"measurement": "Wnt3A-induced accumulation of β-catenin", "setting": "β-catenin [5]", "result": "block"}, {"measurement": "β-catenin abundance", "setting": "β-catenin [6]", "result": "decreased"}, {"measurement": "β-catenin phosphorylation (S33/S37/T41)", "setting": "β-catenin [6]", "result": "significantly increased"}, {"measurement": "protein levels of Axin1 and Axin2", "setting": "Axin1 and Axin2 [7]", "result": "strongly increased"}, {"measurement": "binding displacement (% competition) PARP2", "setting": "PARP2", "result": 88, "unit": "%"}, {"measurement": "GFP-Axin1Δ19-30 protein levels", "setting": "GFP-Axin1; cells expressing GFP-Axin1Δ19-30 (TBD deleted)", "result": "did not further respond"}, {"measurement": "wild-type GFP-Axin1 protein levels", "setting": "GFP-Axin1; cells expressing wild-type GFP-Axin1", "result": "strongly increased"}, {"measurement": "Axin1 and Axin2 poly-ubiquitination", "setting": "Axin1 and Axin2 [3]; co-treatment of XAV939 with MG132", "result": "significantly diminished"}, {"measurement": "ubiquitination of Axin2", "setting": "Axin1 and Axin2 [3]; wash-off experiment, co-treatment with XAV939 and MG132", "result": "completely blocked"}, {"measurement": "PARsylation signal of GFP-Axin in cells", "setting": "GFP-Axin", "result": "strongly reduced"}, {"measurement": "colony formation of DLD-1 cells", "setting": "DLD-1 cells", "result": "significantly inhibited"}, {"measurement": "colony formation in RKO cells", "setting": "RKO cells", "result": "did not affect"}, {"measurement": "mitotic arrest phenotype", "setting": "[8]", "result": "did not result in any overt mitotic arrest phenotype"}, {"measurement": "Axin-GSK3β complex formation", "setting": "Axin-GSK3β complex", "result": "strong increase"}, {"measurement": "transcript levels of Axin1 and Axin2", "setting": "[9]", "result": "unaffected"}, {"measurement": "anti-PAR antibody reactive signal co-migrating with Axin2", "setting": "Axin2", "result": "disappeared"}]}
